Experiments:
skin pH = assay: Test I: duration of skin pH changes; format: in vivo, human (volunteer subjects); conditions: text to Test I
Method: Tests were performed on volunteer subjects using the procedures, conditions and ingredients substantially as described in connection with Test F above, while employing the proportion of active acidic ingredients indicated.

hair-loss = assay: Hair-loss prevention efficacy of minoxidil combined with the two-component acid system (preliminary data); format: in vivo

O=C(O)C(O)C(O)C(=O)O (stereo not drawn) [(+)tartaric acid]
duration of impact on skin pH changes (skin pH): 2 hours

Nc1cc(N2CCCCC2)nc(N)[n+]1[O-] [minoxidil]
efficacy of minoxidil in combination (in words) (hair-loss): enhanced by combination with the inventive two-component acid system

O=C(O)c1ccccc1O [salicylic acid, 2-hydroxybenzoic acid]
water solubility (in words): only moderately or sparingly water soluble
water solubility (text to Test I): less than 1 g. in 5 ml. of water

Reference: patent US5520918A, “Low irritant skin-cosmetic composition for daily topical use, its application and manufacture” (Mary Kay Cosmetics, Inc., priority 1994, dated 1996)
